Values of other authors as cited in patent US6439069B1, “Method and apparatus for detecting subterranean termites” (priority 1999, dated 2002).

Key:
subterranean termites = details: for 20-30 years or more
foraging termites = details: food sources impregnated with 0.5% of the substance

Compound | control of subterranean termites (subterranean termites) [%] | palatability of impregnated food source (foraging termites)
ClC1=C(Cl)C2(Cl)C3C(Cl)C=CC3C1(Cl)C2(Cl)Cl (stereo not drawn) [heptachlor] | 100 | 
ClC1=C(Cl)C2(Cl)C3C(Cl)C(Cl)CC3C1(Cl)C2(Cl)Cl (stereo not drawn) [chlordane] | 100 | 
O.O.O.O.O=BOB1OB(OB=O)OB2OB([O-])OB([O-])OB(O1)O2.[Na+].[Na+] [disodium octaborate tetrahydrate] |  | acceptably palatable
